From patent publication US20260001888A1, “PYRAZOLOPYRIMIDINE PDE9 INHIBITORS” (Merck Sharp & Dohme LLC, priority 2018, published 2026)

Target: Human PDE9 (PDE9A2) (Homo sapiens (Human), UniProt O76083)
Experiment: PDE9 IMAP fluorescence polarization (FP) inhibition assay
Assay type: biochemical
Details: apparent inhibition constant; human PDE9A2, FAM-cGMP substrate 50 nM, room temperature
Protocol: The activity of the compounds in accordance with the present invention as PDE9 inhibitors may be readily determined without undue experimentation using a fluorescence polarization (FP) methodology that is well known in the art (Huang, W., et al., J. Biomol Screen, 2002, 7:215).
In a typical experiment the PDE9 inhibitory activity of the compounds of the present invention was determined in accordance with the following experimental method.
Human PDE9 (PDE9A2, GenBank Accession No. NM_001001567), full length with N-terminal GST tag, was purchased from BPS Bioscience. The fluorescence polarization assay for cyclic nucleotide phosphodiesterases was performed using an IMAP® FP kit supplied by Molecular Devices, Sunnyvale, CA (product #R8139). IMAP® technology has been applied previously to phosphodiesterase assays (Huang, W., et al., J. Biomol Screen, 2002, 7:215). Assays were performed at room temperature in 384-well microtiter plates with an incubation volume of 20.2 μL. Solutions of test compounds were prepared in DMSO and serially diluted with DMSO to yield 8 μL of each of 10 solutions differing by 3-fold in concentration, at 32 serial dilutions per plate. 100% inhibition is determined using a known PDE9 inhibitor, such as 1-(2-chlorophenyl)-6-[(2R)-3,3,3-trifluoro-2-methylpropyl]-1,5-dihydro-4H-pyrazolo[3,4-d]pyrimidine-4-one (BAY 73-6691) (Wunder et al, Mol. Pharmacol., 2005, 68 (6): 1775-81), (6-[(3S,4S)-4-methyl-1-(pyrimidin-2-ylmethyl) pyrrolidin-3-yl]-1-(tetrahydro-2H-pyran-4-yl)-1,5-dihydro-4H-pyrazolo[3,4-d]pyrimidin-4-one (PF-04447943) (Wager et al., ACS Chemical Neuroscience, 2010, 1:435-449). 0% of inhibition is determined by using DMSO (1% final concentrations). A Labcyte Echo 555 (Labcyte, Sunnyvale, CA) is used to dispense 200 nL from each well of the titration plate to the 384 well assay plate. Human PDE9A2 membrane preps were diluted to 1 ng/ml. […] PDE9 enzyme mix and compounds were mixed and incubated at room temperature for 30 min. Following which, FAMcGMP substrate was added, shaken and incubated for an additional 60 min at room temperature. The final concentration of human PDE9 membrane preparations were 0.5 ng/ml. The final concentration of FAM-cGMP was 50 nM. After the incubation period, the enzymatic reaction was stopped by addition of binding solution (IMAP-FP, Molecular Devices, comprised of 80% Solution A, 20% Solution B and a 1:600 dilution of binding reagent) to each well. The plates were shaken then incubated at room temperature for 1 h prior to determining the fluorescence polarization (mP) using a Perkin Elmer En Vision™ plate reader (Waltham, MA).
Fluorescence polarization (mP) was calculated from the parallel(S) and perpendicular (P) fluorescence of each sample well and the analogous values for the median control well, containing only substrate (So and Po), using the following equation: […]
Dose-inhibition profiles for each compound were characterized by fitting the mP data to a four-parameter equation given below. The apparent inhibition constant (KI), the maximum inhibition at the low plateau relative to “100% Inhibition Control” (Imax; e.g. 1=>same as this control), the minimum inhibition at the high plateau relative to the “0% Inhibition Control” (Imin, e.g. 0=>same as the no drug control) and the Hill slope (nH) are determined by a non-linear least squares fitting of the mP values as a function of dose of the compound using an in-house software based on the procedures described by Mosser et al., JALA, 2003, 8:54-63, using the following equation: […]
An apparent (Km) for FAM-labeled […] of 150 nM was determined in separate experiments through simultaneous variation of substrate and selected drug concentrations.

Chain of Human PDE9 (PDE9A2) (O76083 other isoform, or with tags, fused parts or gaps): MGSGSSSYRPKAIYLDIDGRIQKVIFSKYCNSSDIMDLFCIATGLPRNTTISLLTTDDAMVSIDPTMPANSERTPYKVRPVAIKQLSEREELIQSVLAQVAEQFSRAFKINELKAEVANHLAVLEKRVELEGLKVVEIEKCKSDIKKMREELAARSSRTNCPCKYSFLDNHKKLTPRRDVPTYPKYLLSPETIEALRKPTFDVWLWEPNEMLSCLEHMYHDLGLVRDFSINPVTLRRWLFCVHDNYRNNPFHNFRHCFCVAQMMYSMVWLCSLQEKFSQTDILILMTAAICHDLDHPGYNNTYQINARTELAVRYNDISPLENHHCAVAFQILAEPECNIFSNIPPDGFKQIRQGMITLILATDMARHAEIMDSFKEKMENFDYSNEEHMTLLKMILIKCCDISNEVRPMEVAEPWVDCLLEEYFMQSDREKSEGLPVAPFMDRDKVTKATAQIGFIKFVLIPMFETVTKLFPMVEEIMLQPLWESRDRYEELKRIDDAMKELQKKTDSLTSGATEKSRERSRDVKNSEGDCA

| Ki [nM] | Compound |
| --- | --- |
| 16.4 | CC(c1ccc(C(F)(F)F)nc1)n1nc(C#N)c2c(=O)[nH]c(N(C)C(c3ncccn3)C3CCC3)nc21 (single isomer, unassigned) [Example 30, 6-[[cyclobutyl(pyrimidin-2-yl)methyl]-methyl-amino]-4-oxo-1-[1-[6-(trifluoromethyl)-3-pyridyl]ethyl]-5H-pyrazolo[3,4-a]pyrimidine-3-carbonitrile] |
| 1.2 | CC(c1ccc(C(F)(F)F)nc1)n1nc(C#N)c2c(=O)[nH]c(N(C)C(c3ncccn3)C3CCC3)nc21 (single isomer, unassigned) [Example 31, 6-[[cyclobutyl(pyrimidin-2-yl)methyl]-methyl-amino]-4-oxo-1-[1-[6-(trifluoromethyl)-3-pyridyl]ethyl]-5H-pyrazolo[3,4-a]pyrimidine-3-carbonitrile] |
| 0.59 | CCC(c1ccc(F)cn1)N(C)c1nc2c(c(C#N)nn2C(C)c2ccc(C(F)(F)F)nc2)c(=O)[nH]1 (single isomer, unassigned) [Example 33, 6-[1-(5-fluoro-2-pyridyl)propyl-methyl-amino]-4-oxo-1-[1-[6-(trifluoromethyl)-3-pyridyl]ethyl]-5H-pyrazolo[3,4-d]pyrimidine-3-carbonitrile] |
| 0.16 | CCC(c1ccc(F)cn1)N(C)c1nc2c(c(C#N)nn2C(C)c2ccc(C(F)(F)F)nc2)c(=O)[nH]1 (single isomer, unassigned) [Example 34, 6-[1-(5-fluoro-2-pyridyl)propyl-methyl-amino]-4-oxo-1-[1-[6-(trifluoromethyl)-3-pyridyl]ethyl]-5H-pyrazolo[3,4-d]pyrimidine-3-carbonitrile] |
| 7.12 | CCC(c1ccc(F)cn1)N(C)c1nc2c(c(C#N)nn2C(C)c2ccc(C(F)(F)F)nc2)c(=O)[nH]1 (single isomer, unassigned) [Example 35, 6-[1-(5-fluoro-2-pyridyl)propyl-methyl-amino]-4-oxo-1-[1-[6-(trifluoromethyl)-3-pyridyl]ethyl]-5H-pyrazolo[3,4-d]pyrimidine-3-carbonitrile] |
| 19.9 | CCC(c1ccc(F)cn1)N(C)c1nc2c(c(C#N)nn2C(C)c2ccc(C(F)(F)F)nc2)c(=O)[nH]1 (single isomer, unassigned) [Example 36, 6-[1-(5-fluoro-2-pyridyl)propyl-methyl-amino]-4-oxo-1-[1-[6-(trifluoromethyl)-3-pyridyl]ethyl]-5H-pyrazolo[3,4-d]pyrimidine-3-carbonitrile] |
| 2.67 | CCC(c1ncc(F)cn1)N(C)c1nc2c(c(C#N)nn2C(C)C2CCOCC2)c(=O)[nH]1 (single isomer, unassigned) [Example 37, 6-[1-(5-fluoropyrimidin-2-yl)propyl-methyl-amino]-4-oxo-1-(1-tetrahydropyran-4-ylethyl)-5H-pyrazolo[3,4-d]pyrimidine-3-carbonitrile] |
| 8.35 | CCC(c1ncc(F)cn1)N(C)c1nc2c(c(C#N)nn2C(C)C2CCOCC2)c(=O)[nH]1 (single isomer, unassigned) [Example 38, 6-[1-(5-fluoropyrimidin-2-yl)propyl-methyl-amino]-4-oxo-1-(1-tetrahydropyran-4-ylethyl)-5H-pyrazolo[3,4-d]pyrimidine-3-carbonitrile] |
| 0.17 | CCC(c1ncc(F)cn1)N(C)c1nc2c(c(C#N)nn2C(C)C2CCOCC2)c(=O)[nH]1 (single isomer, unassigned) [Example 39, 6-[1-(5-fluoropyrimidin-2-yl)propyl-methyl-amino]-4-oxo-1-(1-tetrahydropyran-4-ylethyl)-5H-pyrazolo[3,4-d]pyrimidine-3-carbonitrile] |
| 33.2 | CCC(c1ncc(F)cn1)N(C)c1nc2c(c(C#N)nn2C(C)C2CCOCC2)c(=O)[nH]1 (single isomer, unassigned) [Example 40, 6-[1-(5-fluoropyrimidin-2-yl)propyl-methyl-amino]-4-oxo-1-(1-tetrahydropyran-4-ylethyl)-5H-pyrazolo[3,4-d]pyrimidine-3-carbonitrile] |
